The record followed here is patent publication US12233161B1, “Lipids and lipid nanoparticle formulations” (LONGUIDE BIOPHARMA CORPORATION, priority 2024, dated 2025).

The nature of data set [1]: Potential characterization of nucleic acid lipid nanoparticle preparations. Type of data set: physicochemical. As for the experimental part:
20 μL of the nucleic acid lipid nanoparticle solution (containing about 0.04 mg/mL mRNA) was taken and added with 780 μL of ultrapure water, used a pipette tip to gently blow and mix, and the potential of the nanopreparation was detected by Malvern particle sizer (model ZEN3700).
27.5 μL nucleic acid lipid nanoparticle solution (containing about 0.04 mg/mL mRNA) was taken and added with 200 μL ultrapure water. A pipette tip was used to gently blow the sample and mix well. The particle size of the nanopreparation was detected by Malvern Dynamic Light Scattering Instrument (Malvern Instruments Ltd., ZEN3700, UK). After the detection, the sample was recovered to an EP tube, and 600 μL of ultrapure water was added, gently blown with a pipette tip, and the potential of the nanopreparation was measured by a Malvern particle size meter.

The next data set deals with mice. Kind of data set: In vivo delivery of FLuc-mRNA lipid nanoparticles in mice, in vivo imaging (IVIS). The essentials:
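Mice (n=3) received about 75 μL FLuc-mRNA LNP per mouse intramuscularly (rectus femoris), intravenously (tail vein), intraperitoneally or subcutaneously (back). After injection, D-luciferin (200 μL, 15 mg/mL) was given i.p. 10-15 min before IVIS imaging.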

Data set [2] is described as follows: Particle size and PDI of nucleic acid lipid nanoparticle preparations by dynamic light scattering. Type of data set: physicochemical. The essentials:
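Nanoparticle suspension (about 0.04 mg/mL mRNA) diluted in ultrapure water, mixed by gentle pipetting; particle size measured by dynamic light scattering. Zeta potential measured on the recovered sample after further dilution in ultrapure water.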

[3] abbreviates: DMG-PEG2000:DSPC:Chol:compound 1.40:11.15:38.95:48.50, N/P 40.
[4] abbreviates: DMG-PEG2000:DSPC:Chol:compound 1.00:10.00:33.00:56.00, N/P 35.5.
[5] abbreviates: mRNA LNP, 1.00:4.00:30.00:65.00, N/P 30.
Setting [6] is: DMG-PEG2000:DSPC:Chol:Lipid 1.00:4.00:60.00:35.00, N/P 18, IV, liver.
Setting [7] is: DMG-PEG2000:DSPC:Chol:Lipid 1.00:4.00:60.00:35.00, N/P 18, IV, lung.
[8] abbreviates: DMG-PEG2000:DSPC:Chol:Lipid 1.00:4.00:60.00:35.00, N/P 18, IV, spleen.
Where [9] appears, read: DMG-PEG2000:DSPC:Chol:Lipid 2.50:16.00:16.50:65.00, N/P 18, IV, liver.
Where [10] appears, read: DMG-PEG2000:DSPC:Chol:Lipid 2.50:16.00:16.50:65.00, N/P 18, IV, lung.
Where [11] appears, read: DMG-PEG2000:DSPC:Chol:Lipid 2.50:16.00:16.50:65.00, N/P 18, IV, spleen.
Where [12] appears, read: mRNA LNP, 1.00:4.00:30.00:65.00, N/P 30, IV, liver.
Where [13] appears, read: mRNA LNP, 1.00:4.00:30.00:65.00, N/P 30, IV, lung.
Setting [14] is: mRNA LNP, 1.00:4.00:30.00:65.00, N/P 30, IV, spleen.
[15] abbreviates: DMG-PEG2000:DSPC:Chol:Lipid 1.00:4.00:60.00:35.00, N/P 18, mRNA LNP.
Setting [16] is: DMG-PEG2000:DSPC:Chol:Lipid 1.71:12.98:45.31:40.00, N/P 30, mRNA LNP.
[17] abbreviates: DMG-PEG2000:DSPC:Chol:Lipid 2.50:16.00:16.50:65.00, N/P 18, mRNA LNP.
Where [18] appears, read: DMG-PEG2000:DSPC:Chol:compound 1.40:11.15:38.95:48.50, N/P 30.
[19] abbreviates: DSPE-PEG5000:DPPC:Chol:compound 1.00:11.15:39.35:48.50, N/P 15.
Setting [20] is: DMG-PEG2000:DSPC:Chol:Lipid 1.40:11.15:38.95:48.50, N/P 30, mRNA LNP.
The mark [21] stands for this setting: DMG-PEG2000:DSPC:Chol:Lipid 1.40:11.15:38.95:48.50, N/P 45, mRNA LNP.
The mark [22] stands for this setting: DMG-PEG2000:DSPC:Chol:Lipid 1.77:14.07:49.16:35.00, N/P 45, mRNA LNP.

SMILES strings stand for the structures.

Take `CCCCCCCCCCNC(=O)C(O)CN(CCCN(CCCN(CCO)CCO)CCCN(CC(O)C(=O)NCCCCCCCCCC)CC(O)C(=O)NCCCCCCCCCC)CC(O)C(=O)NCCCCCCCCCC` (stereo not shown) [Compound L0304]: in data set [1] (setting [3]), the “Zeta potential (mV)” value amounted to 11.93 mV. Moreover, the IVIS came out at 3.48E+05 with mice (IM, DMG-PEG2000:DSPC:Chol:compound 1.40:11.15:38.95:48.50, N/P 40, Fluc-mRNA); 9.15E+06 with mice (IV, body, DMG-PEG2000:DSPC:Chol:compound 1.00:10.00:33.00:56.00, N/P 35.5, Fluc-mRNA); 1.29E+07 in the data set with mice (IV, body, DMG-PEG2000:DSPC:Chol:compound 1.40:11.15:38.95:48.50, N/P 40, Fluc-mRNA); 6.18E+05 in the data set on mice (IV, liver, DMG-PEG2000:DSPC:Chol:compound 1.00:10.00:33.00:56.00, N/P 35.5, Fluc-mRNA); 7.31E+05 with mice (IV, liver, DMG-PEG2000:DSPC:Chol:compound 1.40:11.15:38.95:48.50, N/P 40, Fluc-mRNA); 2.12E+07 with mice (IV, lung, DMG-PEG2000:DSPC:Chol:compound 1.00:10.00:33.00:56.00, N/P 35.5, Fluc-mRNA). Further, the IVIS in the data set with mice (IV, lung, DMG-PEG2000:DSPC:Chol:compound 1.40:11.15:38.95:48.50, N/P 40, Fluc-mRNA) is recorded as 2.87E+07; in the data set on mice (IV, spleen, DMG-PEG2000:DSPC:Chol:compound 1.00:10.00:33.00:56.00, N/P 35.5, Fluc-mRNA), 1.62E+06; in the data set on mice (IV, spleen, DMG-PEG2000:DSPC:Chol:compound 1.40:11.15:38.95:48.50, N/P 40, Fluc-mRNA) it was 2.27E+06. For the same compound, the “% of organ targeting” value in the data set on mice (IV, liver, DMG-PEG2000:DSPC:Chol:compound 1.00:10.00:33.00:56.00, N/P 35.5) stood at 2.63%; in the data set with mice (IV, liver, DMG-PEG2000:DSPC:Chol:compound 1.40:11.15:38.95:48.50, N/P 40), 2.30%; in the data set on mice (IV, lung, DMG-PEG2000:DSPC:Chol:compound 1.00:10.00:33.00:56.00, N/P 35.5), 90.44%; in the data set with mice (IV, lung, DMG-PEG2000:DSPC:Chol:compound 1.40:11.15:38.95:48.50, N/P 40), 90.53%; with mice (IV, spleen, DMG-PEG2000:DSPC:Chol:compound 1.00:10.00:33.00:56.00, N/P 35.5) it was 6.93%; in the data set with mice (IV, spleen, DMG-PEG2000:DSPC:Chol:compound 1.40:11.15:38.95:48.50, N/P 40), 7.17%. The PDI in data set [2] (setting [4]) is 0.15; in data set [2] (setting [3]) it was 0.14. The “Particle size (nm)” value turned out to be 121.27 nm in data set [2] (setting [4]) and 101.73 nm in data set [2] (setting [3]).
In the case of `CCCCCCCCCCCCNC(=O)C(O)CN(CCN(C)CCN(CC(O)C(=O)NCCCCCCCCCCCC)CC(O)C(=O)NCCCCCCCCCCCC)CC(O)C(=O)NCCCCCCCCCCCC` (stereo not shown) [Compound L0264], in data set [1] (setting [5]), the “Zeta potential (mV)” value is 12.33 mV. The IVIS with mice (DMG-PEG2000:DSPC:Chol:Lipid 1.00:4.00:60.00:35.00, N/P 18, IV, body) is 9.71 × 10^7; in the data set with mice (setting [6]), 4.70 × 10^6; with mice (setting [7]), 1.19 × 10^7; in the data set with mice (setting [8]), 1.81 × 10^7; with mice (DMG-PEG2000:DSPC:Chol:Lipid 1.71:12.98:45.31:40.00, N/P 30, IM, whole body scan), 3.34 × 10^5; in the data set on mice (DMG-PEG2000:DSPC:Chol:Lipid 2.50:16.00:16.50:65.00, N/P 18, IV, body), 4.76 × 10^7. Also, the IVIS in the data set with mice (setting [9]) is 9.86 × 10^5; in the data set on mice (setting [10]), 1.05 × 10^8; in the data set on mice (setting [11]), 3.59 × 10^6; with mice (setting [12]), 2.69E+06; in the data set with mice (setting [13]), 6.68E+08; in the data set with mice (setting [14]), 4.76E+06. This compound showed an IVIS in the data set on mice (mRNA LNP, DMG-PEG2000:DSPC:Chol:lipid 1.00:4.00:30.00:65.00, N/P 30, IV, body) of 2.87E+08. Moreover, the “% of organ targeting” value in the data set with mice (setting [6]) stood at 13.54%; in the data set with mice (setting [7]), 34.29%; with mice (setting [8]) it was 52.16%; with mice (setting [9]) it was 0.90%; in the data set with mice (setting [10]), 95.82%; in the data set on mice (setting [11]) it was 3.28%. The “% of organ targeting” value in the data set on mice (setting [12]) came to 0.40%; in the data set with mice (setting [13]) it was 98.90%; in the data set with mice (setting [14]) it was 0.71%. In addition, the “in vivo delivery efficiency as compared to the benchmark compound SM102” value in the data set with mice (certain formulations, Table 2) is on record as “superior in vivo delivery efficiency”. For the same compound, the “tissue-targeting specificity (lung vs spleen depending on molar percentage of compound)” value in the data set with mice (certain formulations, Table 2) was “strong tissue-targeting specificity”. The PDI in data set [2] (setting [15]) is 0.08 ± 0.02; in data set [2] (setting [16]), 0.18 ± 0.00; in data set [2] (setting [17]), 0.15 ± 0.01; in data set [2] (setting [5]) it was 0.14. Moreover, the Particle size in data set [2] (setting [15]) was determined as 78.48 ± 0.63 nm; in data set [2] (setting [16]), 85.86 ± 1.26 nm; in data set [2] (setting [17]), 92.82 ± 0.65 nm. Moreover, the “Particle size (nm)” value in data set [2] (setting [5]) was determined as 90.94 nm.
Turning to `CCCCCCCCCCOC(=O)C(O)CN(C)CCCN(C)CCCN(C)CC(O)C(=O)OCCCCCCCCCC` (stereo not shown) [Compound L0315], the “Zeta potential (mV)” value in data set [1] (setting [18]) worked out at 12.5 mV. Also, the IVIS is on record as 8.43E+05 in the data set with mice (IM, DMG-PEG2000:DSPC:Chol:compound 1.40:11.15:38.95:48.50, N/P 30, Fluc-mRNA) and 5.00E+05 in the data set on mice (IV, organ not given, DMG-PEG2000:DSPC:Chol:compound 1.40:11.15:38.95:48.50, N/P 30, Fluc-mRNA). In data set [2] (setting [18]), this compound yielded a PDI of 0.13. The “Particle size (nm)” value in data set [2] (setting [18]) is on record as 141.63 nm.
In the case of `CCCCCCCCCCN(C)C(=O)C(O)CN(C)CCN(C)CCN(C)CC(O)C(=O)N(C)CCCCCCCCCC` (stereo not shown) [Compound L0348], the “Zeta potential (mV)” value in data set [1] (setting [19]) worked out at 5.54 mV. Moreover, the IVIS is on record as 3.49E+05 in the data set with mice (Fluc-mRNA LNP, route IM, organ not given, formulation, molar ratio and N/P as in the table); 4.84E+05 in the data set on mice (IV, organ not given, DSPE-PEG5000:DPPC:Chol:compound 1.00:11.15:39.35:48.50, N/P 15, Fluc-mRNA). Besides, the PDI in data set [2] (setting [19]) turned out to be 0.14. In addition, the “Particle size (nm)” value in data set [2] (setting [19]) was determined as 118.20 nm.
For `CCCCCCC(CCCCCC)C(=O)OCCCCCCOC(=O)C(O)CN(C)CCN(C)CCN(C)CC(O)C(=O)OCCCCCCOC(=O)C(CCCCCC)CCCCCC` (stereo not shown) [Compound L0286], the IVIS in the data set on mice (DMG-PEG2000:DSPC:Chol:Lipid 1.40:11.15:38.95:48.50, N/P 30, IM, whole body scan) is 3.05 × 10^3. In addition, the IVIS with mice (DMG-PEG2000:DSPC:Chol:Lipid 1.40:11.15:38.95:48.50, N/P 30, IV, body (whole body scan)) was 4.41 × 10^6. In data set [2] (setting [20]), the PDI is recorded as 0.16 ± 0.04 and the Particle size is 136.97 ± 0.92 nm.
As for `CCCCCCCCCCCCNC(=O)C(O)CN(CCCN(CC(O)C(=O)NCCCCCCCCCCCC)CC(O)C(=O)NCCCCCCCCCCCC)CCCN(CC(O)C(=O)NCCCCCCCCCCCC)CC(O)C(=O)NCCCCCCCCCCCC` (stereo not shown) [Compound L0267], the IVIS is listed as 3.89 × 10^5 in the data set on mice (DMG-PEG2000:DSPC:Chol:Lipid 1.40:11.15:38.95:48.50, N/P 45, IV, whole body scan) and 1.05 × 10^6 in the data set on mice (DMG-PEG2000:DSPC:Chol:Lipid 1.77:14.07:49.16:35.00, N/P 45, IM, whole body scan). Also, the PDI in data set [2] (setting [21]) is 0.16 ± 0.02; in data set [2] (setting [22]), 0.14 ± 0.01. Besides, the Particle size in data set [2] (setting [21]) came out at 148.37 ± 1.40 nm; in data set [2] (setting [22]), 121.47 ± 0.72 nm.
